Measured values reported in the CheMixHub viscosity set.

Assay: xn = mol fraction of the nth substance listed

COCCOC + O
Settings	viscosity [mPa·s]
298 K, 101 kPa, x2 = 0.222	0.5134
298 K, 101 kPa, x2 = 0.353	0.6057
298 K, 101 kPa, x2 = 0.3777	0.6324
298 K, 101 kPa, x2 = 0.4685	0.7626
298 K, 101 kPa, x2 = 0.5569	0.943
298 K, 101 kPa, x2 = 0.711	1.481
298 K, 101.3 kPa, x1 = 0.019	1.166
298 K, 101.3 kPa, x1 = 0.0608	1.748
298 K, 101.3 kPa, x1 = 0.1011	2.092
298 K, 101.3 kPa, x1 = 0.1521	2.104
298 K, 101.3 kPa, x1 = 0.1999	1.935
298 K, 101.3 kPa, x1 = 0.2992	1.432
298 K, 101.3 kPa, x1 = 0.4048	1.074
298 K, 101.3 kPa, x1 = 0.597	0.684
298 K, 101.3 kPa, x1 = 0.801	0.506
298.15 K, 101.33 kPa, x1 = 0.007	1.018
298.15 K, 101.33 kPa, x1 = 0.0184	1.189
298.15 K, 101.33 kPa, x1 = 0.0306	1.376
298.15 K, 101.33 kPa, x1 = 0.0542	1.712
298.15 K, 101.33 kPa, x1 = 0.0775	1.968
298.15 K, 101.33 kPa, x1 = 0.1063	2.146
298.15 K, 101.33 kPa, x1 = 0.1301	2.252
298.15 K, 101.33 kPa, x1 = 0.1654	2.164
298.15 K, 101.33 kPa, x1 = 0.2002	2.001
298.15 K, 101.33 kPa, x1 = 0.2402	1.782
298.15 K, 101.33 kPa, x1 = 0.2886	1.55
298.15 K, 101.33 kPa, x1 = 0.3482	1.256
298.15 K, 101.33 kPa, x1 = 0.3836	1.128
298.15 K, 101.33 kPa, x1 = 0.4226	1.005
298.15 K, 101.33 kPa, x1 = 0.4689	0.886
298.15 K, 101.33 kPa, x1 = 0.5203	0.78
298.15 K, 101.33 kPa, x1 = 0.5617	0.707
298.15 K, 101.33 kPa, x1 = 0.613	0.638
298.15 K, 101.33 kPa, x1 = 0.6418	0.605
298.15 K, 101.33 kPa, x1 = 0.6575	0.586
298.15 K, 101.33 kPa, x1 = 0.7264	0.536
298.15 K, 101.33 kPa, x1 = 0.8227	0.491
298.15 K, 101.33 kPa, x1 = 0.8646	0.471
298.15 K, 101.33 kPa, x1 = 0.9633	0.433
303.15 K, 101 kPa, x1 = 0.0471	1.344
303.15 K, 101 kPa, x1 = 0.0951	1.725
303.15 K, 101 kPa, x1 = 0.1421	1.837
303.15 K, 101 kPa, x1 = 0.1877	1.726
303.15 K, 101 kPa, x1 = 0.2322	1.562
303.15 K, 101 kPa, x1 = 0.277	1.373
303.15 K, 101 kPa, x1 = 0.3598	1.093
303.15 K, 101 kPa, x1 = 0.4455	0.8759
303.15 K, 101 kPa, x1 = 0.5389	0.7129
303.15 K, 101 kPa, x1 = 0.6952	0.5462
303.15 K, 101 kPa, x1 = 0.803	0.4759
303.15 K, 101 kPa, x1 = 0.9001	0.4317
308.15 K, 101 kPa, x1 = 0.0471	1.174
308.15 K, 101 kPa, x1 = 0.0951	1.487
308.15 K, 101 kPa, x1 = 0.1421	1.583
308.15 K, 101 kPa, x1 = 0.1877	1.493
308.15 K, 101 kPa, x1 = 0.2322	1.375
308.15 K, 101 kPa, x1 = 0.277	1.214
308.15 K, 101 kPa, x1 = 0.3598	0.98
308.15 K, 101 kPa, x1 = 0.4455	0.7944
308.15 K, 101 kPa, x1 = 0.5389	0.6553
308.15 K, 101 kPa, x1 = 0.6952	0.5103
308.15 K, 101 kPa, x1 = 0.803	0.448
308.15 K, 101 kPa, x1 = 0.9001	0.4079
313.15 K, 101 kPa, x1 = 0.0471	1.035
313.15 K, 101 kPa, x1 = 0.0951	1.302
313.15 K, 101 kPa, x1 = 0.1421	1.377
313.15 K, 101 kPa, x1 = 0.1877	1.308
313.15 K, 101 kPa, x1 = 0.2322	1.211
313.15 K, 101 kPa, x1 = 0.277	1.081
313.15 K, 101 kPa, x1 = 0.3598	0.886
313.15 K, 101 kPa, x1 = 0.4455	0.7267
313.15 K, 101 kPa, x1 = 0.5389	0.6061
313.15 K, 101 kPa, x1 = 0.6952	0.4784
313.15 K, 101 kPa, x1 = 0.803	0.4217
313.15 K, 101 kPa, x1 = 0.9001	0.3865
318.15 K, 101 kPa, x1 = 0.0471	0.9228
318.15 K, 101 kPa, x1 = 0.0951	1.143
318.15 K, 101 kPa, x1 = 0.1421	1.208
318.15 K, 101 kPa, x1 = 0.1877	1.157
318.15 K, 101 kPa, x1 = 0.2322	1.07
318.15 K, 101 kPa, x1 = 0.277	0.9692
318.15 K, 101 kPa, x1 = 0.3598	0.8048
318.15 K, 101 kPa, x1 = 0.4455	0.6672
318.15 K, 101 kPa, x1 = 0.5389	0.5616
318.15 K, 101 kPa, x1 = 0.6952	0.4497
318.15 K, 101 kPa, x1 = 0.803	0.3986
318.15 K, 101 kPa, x1 = 0.9001	0.367
323.15 K, 101 kPa, x1 = 0.0471	0.8291
323.15 K, 101 kPa, x1 = 0.0951	1.013
323.15 K, 101 kPa, x1 = 0.1421	1.07
323.15 K, 101 kPa, x1 = 0.1877	1.034
323.15 K, 101 kPa, x1 = 0.2322	0.9565
323.15 K, 101 kPa, x1 = 0.277	0.8719
323.15 K, 101 kPa, x1 = 0.3598	0.7336
323.15 K, 101 kPa, x1 = 0.4455	0.6155
323.15 K, 101 kPa, x1 = 0.5389	0.5232
323.15 K, 101 kPa, x1 = 0.6952	0.4226
323.15 K, 101 kPa, x1 = 0.803	0.3769
323.15 K, 101 kPa, x1 = 0.9001	0.3479
